Laboratory results taken from ChEMBL document CHEMBL1201862, “PubChem BioAssay data set” (2004).
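Test compounds were applied to cells in 96-well plates for 48 hours at 5 doses. GI50 is the concentration that inhibits growth by half.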 The source made the active and inactive calls. No stated cut-off is given here; in the data, active = GI50 up to about 1.1 µM and inactive = higher.

Assays:
Experiment in all cases: inhibition of tumour cell growth, NCI panel, 48 h
TK-10 = tested on: TK-10
OVCAR-4 = tested on: OVCAR-4
M14 = tested on: M14
KM-20L2 = tested on: KM-20L2
NCI-H460 = tested on: NCI-H460
COLO 205 = tested on: COLO 205
UACC-257 = tested on: UACC-257
OVCAR-5 = tested on: OVCAR-5
SK-MEL-28 = tested on: SK-MEL-28
HOP-92 = tested on: HOP-92
RPMI-8226 = tested on: RPMI-8226
SNB-75 = tested on: SNB-75
DMS-273 = tested on: DMS-273
NCI-H23 = tested on: NCI-H23
DMS-114 = tested on: DMS-114
SN12C = tested on: SN12C
SK-OV-3 = tested on: SK-OV-3
A498 = tested on: A498
A549 = tested on: A549
DLD-1 = tested on: DLD-1
SNB-78 = tested on: SNB-78
SF-295 = tested on: SF-295
K562 = tested on: K562
MOLT-4 = tested on: MOLT-4
ACHN = tested on: ACHN
Malme-3M = tested on: Malme-3M
OVCAR-8 = tested on: OVCAR-8
M19-MEL = tested on: M19-MEL
UO-31 = tested on: UO-31
RXF 393 = tested on: RXF 393
SNB-19 = tested on: SNB-19
UACC-62 = tested on: UACC-62
CAKI-1 = tested on: CAKI-1
HT-29 = tested on: HT-29
NCI-H522 = tested on: NCI-H522
EKVX = tested on: EKVX
HCT-116 = tested on: HCT-116
HCC 2998 = tested on: HCC 2998
LXFL 529 = tested on: LXFL 529
IGROV-1 = tested on: IGROV-1
786-0 = tested on: 786-0
SF-539 = tested on: SF-539
OVCAR-3 = tested on: OVCAR-3
KM12 = tested on: KM12
XF498 = tested on: XF498
HOP-18 = tested on: HOP-18
HOP-62 = tested on: HOP-62
LOX IMVI = tested on: LOX IMVI
SK-MEL-2 = tested on: SK-MEL-2
SW-620 = tested on: SW-620
HCT-15 = tested on: HCT-15
U-251 = tested on: U-251
SK-MEL-5 = tested on: SK-MEL-5
HL-60 = tested on: HL-60
SF-268 = tested on: SF-268
CCRF-CEM = tested on: CCRF-CEM

Q: For `NC(=O)C(=Cc1ccc(CP(=O)(O)O)cc1)C(N)=O`, which GI50 (TK-10) is on record?
A: > 100 µM (inactive)

Q: And the GI50 (OVCAR-4)?
A: > 100 µM (inactive)

Q: And the GI50 (M14)?
A: > 100 µM (inactive)

Q: What about the GI50 (KM-20L2) of the same compound?
A: > 100 µM (inactive)

Q: And the GI50 (NCI-H460)?
A: > 100 µM (inactive)

Q: And the GI50 (COLO 205)?
A: > 100 µM (inactive)

Q: And the GI50 (UACC-257)?
A: > 100 µM (inactive)

Q: What about the GI50 (OVCAR-5) of the same compound?
A: > 100 µM (inactive)

Q: And the GI50 (SK-MEL-28)?
A: > 100 µM (inactive)

Q: What about the GI50 (HOP-92) of the same compound?
A: > 100 µM (inactive)

Q: And the GI50 (RPMI-8226)?
A: > 100 µM (inactive)

Q: And the GI50 (SNB-75)?
A: > 100 µM (inactive)

Q: What about the GI50 (DMS-273) of the same compound?
A: > 100 µM (inactive)

Q: What about the GI50 (NCI-H23) of the same compound?
A: > 100 µM (inactive)

Q: What about the GI50 (DMS-114) of the same compound?
A: > 100 µM (inactive)

Q: And the GI50 (SN12C)?
A: > 100 µM (inactive)

Q: And the GI50 (SK-OV-3)?
A: > 100 µM (inactive)

Q: And the GI50 (A498)?
A: > 100 µM (inactive)

Q: And the GI50 (A549)?
A: > 100 µM (inactive)

Q: What about the GI50 (DLD-1) of the same compound?
A: > 100 µM (inactive)

Q: What about the GI50 (SNB-78) of the same compound?
A: > 100 µM (inactive)

Q: What about the GI50 (SF-295) of the same compound?
A: > 100 µM (inactive)

Q: What about the GI50 (K562) of the same compound?
A: > 100 µM (inactive)

Q: What about the GI50 (MOLT-4) of the same compound?
A: > 100 µM (inactive)

Q: And the GI50 (ACHN)?
A: > 100 µM (inactive)

Q: What about the GI50 (Malme-3M) of the same compound?
A: > 100 µM (inactive)

Q: And the GI50 (OVCAR-8)?
A: > 100 µM (inactive)

Q: What about the GI50 (M19-MEL) of the same compound?
A: > 100 µM (inactive)

Q: And the GI50 (UO-31)?
A: > 100 µM (inactive)

Q: And the GI50 (RXF 393)?
A: > 100 µM (inactive)

Q: What about the GI50 (SNB-19) of the same compound?
A: > 100 µM (inactive)

Q: What about the GI50 (UACC-62) of the same compound?
A: > 100 µM (inactive)

Q: What about the GI50 (CAKI-1) of the same compound?
A: > 100 µM (inactive)

Q: And the GI50 (HT-29)?
A: > 100 µM (inactive)

Q: And the GI50 (NCI-H522)?
A: > 100 µM (inactive)

Q: And the GI50 (EKVX)?
A: > 100 µM (inactive)

Q: And the GI50 (HCT-116)?
A: > 100 µM (inactive)

Q: What about the GI50 (HCC 2998) of the same compound?
A: > 100 µM (inactive)

Q: And the GI50 (LXFL 529)?
A: > 100 µM (inactive)

Q: And the GI50 (IGROV-1)?
A: > 100 µM (inactive)

Q: And the GI50 (786-0)?
A: > 100 µM (inactive)

Q: And the GI50 (SF-539)?
A: > 100 µM (inactive)

Q: What about the GI50 (OVCAR-3) of the same compound?
A: > 100 µM (inactive)

Q: And the GI50 (KM12)?
A: > 100 µM (inactive)

Q: What about the GI50 (XF498) of the same compound?
A: > 100 µM (inactive)

Q: What about the GI50 (HOP-18) of the same compound?
A: > 100 µM (inactive)

Q: And the GI50 (HOP-62)?
A: > 100 µM (inactive)

Q: What about the GI50 (LOX IMVI) of the same compound?
A: > 100 µM (inactive)

Q: What about the GI50 (SK-MEL-2) of the same compound?
A: > 100 µM (inactive)

Q: And the GI50 (SW-620)?
A: > 100 µM (inactive)

Q: And the GI50 (HCT-15)?
A: > 100 µM

Q: What about the GI50 (U-251) of the same compound?
A: > 100 µM (inactive)

Q: And the GI50 (SK-MEL-5)?
A: > 100 µM (inactive)

Q: `CCN(CC)c1ccc(C2N3CCCCC3[C@@H]3c4[nH]c5ccccc5c4CCN23)cc1` (stereo not given in full) was tested. Which GI50 (TK-10) did it give?
A: 27.2 µM (inactive)

Q: What about the GI50 (OVCAR-4) of the same compound?
A: 36.5 µM (inactive)

Q: What about the GI50 (M14) of the same compound?
A: 24.8 µM (inactive)

Q: And the GI50 (KM-20L2)?
A: 29.3 µM (inactive)

Q: What about the GI50 (NCI-H460) of the same compound?
A: 22.3 µM (inactive)

Q: What about the GI50 (COLO 205) of the same compound?
A: 27.4 µM (inactive)

Q: And the GI50 (UACC-257)?
A: 27.7 µM (inactive)

Q: What about the GI50 (OVCAR-5) of the same compound?
A: 51.3 µM (inactive)

Q: What about the GI50 (SK-MEL-28) of the same compound?
A: 25.9 µM (inactive)

Q: And the GI50 (HOP-92)?
A: 38.1 µM (inactive)

Q: What about the GI50 (RPMI-8226) of the same compound?
A: 12.8 µM (inactive)

Q: What about the GI50 (SNB-75) of the same compound?
A: 6.11 µM (inactive)

Q: And the GI50 (DMS-273)?
A: 32.9 µM (inactive)

Q: What about the GI50 (NCI-H23) of the same compound?
A: 34.9 µM (inactive)

Q: And the GI50 (DMS-114)?
A: 14 µM (inactive)

Q: What about the GI50 (SN12C) of the same compound?
A: 19.7 µM (inactive)

Q: And the GI50 (SK-OV-3)?
A: 69.7 µM (inactive)

Q: And the GI50 (HL-60)?
A: 7.43 µM (inactive)

Q: And the GI50 (A498)?
A: 14.5 µM (inactive)

Q: And the GI50 (A549)?
A: 49.1 µM (inactive)

Q: And the GI50 (DLD-1)?
A: 26 µM (inactive)

Q: And the GI50 (SNB-78)?
A: 22.1 µM (inactive)

Q: And the GI50 (SF-295)?
A: 53.7 µM (inactive)

Q: And the GI50 (K562)?
A: 15.2 µM (inactive)

Q: What about the GI50 (SF-268) of the same compound?
A: 22.1 µM (inactive)

Q: What about the GI50 (MOLT-4) of the same compound?
A: 25.5 µM (inactive)

Q: What about the GI50 (ACHN) of the same compound?
A: 27 µM (inactive)

Q: And the GI50 (Malme-3M)?
A: 24.2 µM (inactive)

Q: What about the GI50 (OVCAR-8) of the same compound?
A: 35.3 µM (inactive)

Q: What about the GI50 (M19-MEL) of the same compound?
A: 23.7 µM (inactive)

Q: What about the GI50 (UO-31) of the same compound?
A: 27 µM (inactive)

Q: And the GI50 (RXF 393)?
A: 15.8 µM (inactive)

Q: What about the GI50 (SNB-19) of the same compound?
A: 32.5 µM (inactive)

Q: What about the GI50 (UACC-62) of the same compound?
A: 19.5 µM (inactive)

Q: And the GI50 (CAKI-1)?
A: 74.3 µM (inactive)

Q: And the GI50 (HT-29)?
A: 16.1 µM (inactive)

Q: What about the GI50 (EKVX) of the same compound?
A: 74.8 µM (inactive)

Q: What about the GI50 (HCT-116) of the same compound?
A: 16.1 µM (inactive)

Q: What about the GI50 (LXFL 529) of the same compound?
A: 21.3 µM (inactive)

Q: What about the GI50 (IGROV-1) of the same compound?
A: 42.8 µM (inactive)

Q: What about the GI50 (786-0) of the same compound?
A: 37.8 µM (inactive)

Q: And the GI50 (SF-539)?
A: 18.3 µM (inactive)

Q: What about the GI50 (OVCAR-3) of the same compound?
A: 23.9 µM (inactive)

Q: What about the GI50 (XF498) of the same compound?
A: 17.1 µM (inactive)

Q: And the GI50 (HOP-18)?
A: > 100 µM (inactive)

Q: What about the GI50 (CCRF-CEM) of the same compound?
A: 16.3 µM (inactive)

Q: And the GI50 (HOP-62)?
A: > 100 µM (inactive)

Q: What about the GI50 (SK-MEL-2) of the same compound?
A: > 10 µM (inactive)

Q: What about the GI50 (SW-620) of the same compound?
A: 33.5 µM (inactive)

Q: And the GI50 (HCT-15)?
A: 34.8 µM

Q: What about the GI50 (U-251) of the same compound?
A: 29.6 µM (inactive)

Q: And the GI50 (SK-MEL-5)?
A: 17.3 µM (inactive)
